Three molecules from US20250188040A1, “PHARMACEUTICAL COMPOSITIONS COMPRISING WRN HELICASE INHIBITORS” (Vividion Therapeutics, Inc., priority 2022, published 2025) can be followed below.

The target in assay [1] is T1, WRN C727 (Homo sapiens, UniProt Q14191).
T1 construct: endogenous in cells; host or cells: OCI-AML2
The assay can be described thus: Target engagement, in situ (cell), OCI-AML2. The class given is cell-based. As to conditions: OCI-AML2 cells, read-out: OCI-AML2 WRN C727 TE50 in situ (cell). The procedure:
Cells or cell lysates were treated with a dose response of compound followed by probe treatment, which labels solvent exposed cysteines. Proteins were enzymatically digested with trypsin and probe-labelled peptides were enriched with streptavidin. Isolated peptides were then separated using reversed-phase liquid chromatography on a C18 column (Dionex Ultimated 3000 nano-LC, Thermo). Peptides were analyzed by parallel reaction monitoring mass spectrometry (Exploris 120, Thermo).
Target engagement (%) is calculated relative to DMSO treated control samples.

In assay [2] the target is T1, WRN C727. Kind of assay: Target engagement, in vitro (lysate), OCI-AML2. The assay is classed as binding. As to conditions: read-out: OCI-AML2 WRN C727 TE50 in vitro (lysate). A digest of the protocol: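 Percent engagement of WRN C727 is expressed against DMSO-treated samples, measured by PRM mass spectrometry of streptavidin-enriched, probe-tagged tryptic peptides. Compound dose responses preceded probe labelling of solvent-exposed cysteines, in either living OCI-AML2 cells or their lysates.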

Another assay concerns HCT 116 cells. The assay can be described thus: Cell growth assay (CellTiter-Glo 2.0), HCT 116 MSI-H cell line. The note with it: Homo sapiens, HCT-116, 120 h, read-out: Cell Growth Inhibition GI50 HCT-116.
Assay [3] deals with hWRN(519-1227)_C-H3CV-GFP-10His (Homo sapiens, UniProt Q14191). Kind of assay: Helicase Assay for WRN Inhibition (ATP-dependent, fluorescence based).
Sequence of hWRN(519-1227)_C-H3CV-GFP-10His (Q14191 519-1227): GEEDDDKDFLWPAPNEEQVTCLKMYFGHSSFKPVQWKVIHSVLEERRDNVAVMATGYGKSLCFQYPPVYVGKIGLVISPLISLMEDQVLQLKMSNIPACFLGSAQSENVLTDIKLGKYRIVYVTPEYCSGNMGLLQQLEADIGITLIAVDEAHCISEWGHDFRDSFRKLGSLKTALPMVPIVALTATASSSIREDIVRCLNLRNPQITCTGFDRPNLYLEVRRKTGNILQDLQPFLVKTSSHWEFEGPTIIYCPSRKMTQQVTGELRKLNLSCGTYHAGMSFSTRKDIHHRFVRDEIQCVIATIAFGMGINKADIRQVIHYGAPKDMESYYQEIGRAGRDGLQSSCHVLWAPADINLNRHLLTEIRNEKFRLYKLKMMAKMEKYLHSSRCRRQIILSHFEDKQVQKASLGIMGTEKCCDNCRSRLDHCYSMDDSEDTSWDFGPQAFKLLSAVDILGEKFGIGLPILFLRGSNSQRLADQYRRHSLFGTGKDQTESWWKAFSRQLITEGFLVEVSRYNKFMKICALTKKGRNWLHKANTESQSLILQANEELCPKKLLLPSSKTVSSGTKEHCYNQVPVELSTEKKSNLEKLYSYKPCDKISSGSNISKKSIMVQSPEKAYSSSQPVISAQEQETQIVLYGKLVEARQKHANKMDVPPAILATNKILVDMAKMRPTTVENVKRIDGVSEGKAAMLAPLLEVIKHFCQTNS
Procedure: Effects of compounds on WRN helicase activity were assessed with the Helicase Assay for WRN Inhibition. This is an ATP-dependent (inclusion of ATP is important and is required for this assay) fluorescence based assay using recombinant WRN and a fluorogenic DNA substrate.
WRN activity was normalized to signal from wells without WRN protein (background, 0% activity) and wells with protein treated only with DMSO (positive control, 10000 activity). For each compound the potency of inhibition (IC50) was determiined using Graphpad Prism.
The test system of a further assay is SW480 cells. Kind of assay: Cell growth assay (CellTiter-Glo 2.0), SW480 MSS cell line. As to conditions: Homo sapiens, SW480, 120 h, read-out: Cell Growth Inhibition GI50 SW480.

SMILES strings stand for the structures. Read-outs that look alike come from different tables or passages of the source.

T1 sequence (Q14191 whole entry): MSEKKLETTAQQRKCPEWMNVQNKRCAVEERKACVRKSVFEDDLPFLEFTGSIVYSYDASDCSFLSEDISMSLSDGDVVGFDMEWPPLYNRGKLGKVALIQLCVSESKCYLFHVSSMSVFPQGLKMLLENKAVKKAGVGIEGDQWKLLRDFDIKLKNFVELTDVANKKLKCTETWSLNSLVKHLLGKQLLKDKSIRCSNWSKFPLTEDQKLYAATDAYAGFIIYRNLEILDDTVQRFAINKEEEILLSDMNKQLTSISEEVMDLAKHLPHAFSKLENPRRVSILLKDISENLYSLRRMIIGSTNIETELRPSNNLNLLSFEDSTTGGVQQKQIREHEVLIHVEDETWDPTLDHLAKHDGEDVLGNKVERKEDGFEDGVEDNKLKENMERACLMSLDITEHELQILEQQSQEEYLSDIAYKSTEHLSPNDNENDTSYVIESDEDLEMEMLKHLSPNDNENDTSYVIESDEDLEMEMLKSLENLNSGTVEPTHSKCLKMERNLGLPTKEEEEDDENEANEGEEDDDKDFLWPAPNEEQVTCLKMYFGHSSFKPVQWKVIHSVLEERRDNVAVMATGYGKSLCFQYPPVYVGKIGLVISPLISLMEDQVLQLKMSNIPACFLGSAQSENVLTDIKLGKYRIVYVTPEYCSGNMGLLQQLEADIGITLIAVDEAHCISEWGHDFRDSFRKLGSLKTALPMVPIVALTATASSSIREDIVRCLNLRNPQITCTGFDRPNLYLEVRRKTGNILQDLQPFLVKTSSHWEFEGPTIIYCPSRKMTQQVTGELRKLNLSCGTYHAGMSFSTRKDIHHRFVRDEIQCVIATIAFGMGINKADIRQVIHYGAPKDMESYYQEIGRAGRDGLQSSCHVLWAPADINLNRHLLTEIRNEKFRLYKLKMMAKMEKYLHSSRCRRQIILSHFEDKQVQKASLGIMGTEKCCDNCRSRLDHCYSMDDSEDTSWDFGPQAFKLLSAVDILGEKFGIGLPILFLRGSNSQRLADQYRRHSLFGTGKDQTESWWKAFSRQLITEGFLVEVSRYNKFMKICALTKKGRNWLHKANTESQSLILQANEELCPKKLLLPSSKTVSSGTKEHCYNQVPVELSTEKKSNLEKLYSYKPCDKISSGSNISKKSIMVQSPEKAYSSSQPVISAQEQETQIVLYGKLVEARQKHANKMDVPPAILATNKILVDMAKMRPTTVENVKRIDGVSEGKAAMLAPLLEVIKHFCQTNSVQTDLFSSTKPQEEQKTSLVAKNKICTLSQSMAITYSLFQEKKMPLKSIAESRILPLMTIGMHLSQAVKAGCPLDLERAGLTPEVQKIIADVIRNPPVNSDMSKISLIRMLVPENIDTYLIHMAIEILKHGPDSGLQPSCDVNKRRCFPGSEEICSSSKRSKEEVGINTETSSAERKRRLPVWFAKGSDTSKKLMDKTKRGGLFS
Procedure for HCT 116 cells: The effects of compound on cellular viability were determined using the CellTiter-Glo® 2.0 Luminescent Cell Viability Assay (Promega, Madison, WI).
SW480 cells were seeded at 1,000 cells per well in Eagle's Minimum Essential Medium (EMEM) with 10% FBS. Both cell lines were seeded in a volume of 50 μL medium per well. […] The concentration range was adjusted as needed for compounds of different potencies. The cells treated with compounds were incubated for 5 days at 37° C. in 5% CO2. […] The plate was then read on a Clariostar plate reader (BMG Labtech, Cary, NC) in luminescence mode. The previously measured baseline cell viability was subtracted from the luminescence value of each well, and cell viability (% of DMSO) was plotted as a function of log compound concentration. The EC50 was then calculated for each compound using Dotmatics Software (San Diego, CA).

With `CS(=O)(=O)/C=C/[C@@H](NC(=O)c1cnc(C(F)(F)C2CC2)nc1Oc1ccccc1)C1CCC1` [Example 225, (S,E)-N-(1-cyclobutyl-3-(methylsulfonyl)allyl)-2-(cyclopropyldifluoromethyl)-4-phenoxypyrimidine-5-carboxamide], the IC50 at WRN C727 [1] is 0.016 µM; at WRN C727 [2] it was 0.119 µM; in assay [3] (WRN Helicase IC50, 30 min preincubation with ATP, 30 min reaction), 0.0544 µM. For the same molecule, the GI50 (commonly the concentration giving 50% growth inhibition) in the assay with HCT 116 cells worked out at 0.017 µM; in the assay on SW480 cells, 18 µM.
Take `N#CC=C1CN(C(=O)c2cnc(C3CC3)nc2Oc2ccccc2)C1` [Example 264, 2-(1-(2-cyclopropyl-4-phenoxypyrimidine-5-carbonyl)azetidin-3-ylidene)acetonitrile]: the results for the IC50 (on WRN C727 [1]; on WRN C727 [2]; in assay [3]) were 6.65 µM, 16.3 µM and 2.3 µM, respectively. The concentration for 50% growth inhibition (GI50) was 3.8 µM in the assay with HCT 116 cells and 8.1 µM with SW480 cells.
For `C=C(C#N)CNC(=O)c1cnc(C(F)(F)C2CC2)nc1Oc1ccccc1` [Example 272, N-(2-cyanoallyl)-2-(cyclopropyldifluoromethyl)-4-phenoxypyrimidine-5-carboxamide], the results for the IC50 (on WRN C727 [1]; at WRN C727 [2]; in assay [3]) were 3.96 µM, 8.28 µM and 0.38 µM, respectively. In addition, the GI50 was 0.21 µM in the assay with HCT 116 cells and 7.8 µM in the assay with SW480 cells.
